Reference: patent US20090105349A1, “ANDROGEN MODULATORS” (WARNER-LAMBERT COMPANY LLC, priority 2004, published 2009)

Columns and labels:
[1] = target: T1, androgen receptor in MDA-MB453-MMTV clone 54-19 cells (Homo sapiens, UniProt P10275); experiment: AR antagonist cell assay (MMTV-luciferase reporter); format: cell-based; conditions: read-out: AR Cell IC50; MDA-MB453-MMTV clone 54-19, inhibition of DHT induced luciferase, 17 hr; mean of multiple tests
T1 sequence (P10275 1-920 Q868H): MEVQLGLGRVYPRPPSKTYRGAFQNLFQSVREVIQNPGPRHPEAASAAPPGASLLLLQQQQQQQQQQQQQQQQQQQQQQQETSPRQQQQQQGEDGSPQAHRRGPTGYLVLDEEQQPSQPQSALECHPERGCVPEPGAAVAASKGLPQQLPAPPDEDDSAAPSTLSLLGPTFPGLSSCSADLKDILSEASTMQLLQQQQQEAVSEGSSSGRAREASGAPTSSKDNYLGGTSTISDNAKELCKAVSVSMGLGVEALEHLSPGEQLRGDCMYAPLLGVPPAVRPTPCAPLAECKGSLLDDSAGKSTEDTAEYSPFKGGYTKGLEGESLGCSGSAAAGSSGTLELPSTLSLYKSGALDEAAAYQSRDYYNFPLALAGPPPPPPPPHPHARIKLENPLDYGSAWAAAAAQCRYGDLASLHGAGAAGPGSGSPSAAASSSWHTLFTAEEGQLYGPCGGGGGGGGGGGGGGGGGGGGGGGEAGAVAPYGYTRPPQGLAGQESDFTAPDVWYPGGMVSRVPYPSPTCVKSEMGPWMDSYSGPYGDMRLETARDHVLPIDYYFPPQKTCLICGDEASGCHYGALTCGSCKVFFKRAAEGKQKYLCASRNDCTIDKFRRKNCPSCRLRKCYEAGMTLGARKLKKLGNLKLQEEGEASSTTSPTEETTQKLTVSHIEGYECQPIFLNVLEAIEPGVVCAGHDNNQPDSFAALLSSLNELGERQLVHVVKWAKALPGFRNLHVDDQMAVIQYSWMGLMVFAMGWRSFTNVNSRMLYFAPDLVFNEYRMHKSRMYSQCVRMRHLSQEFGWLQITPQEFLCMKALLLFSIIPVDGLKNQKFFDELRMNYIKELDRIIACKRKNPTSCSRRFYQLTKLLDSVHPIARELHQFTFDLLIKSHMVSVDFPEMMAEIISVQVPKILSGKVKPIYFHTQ

[2] = test system: male Syrian hamsters (ear sebaceous glands, sebum); experiment: Animal model for inhibition of sebum production (hamster ear); format: in vivo, Syrian hamster; conditions: 3 % w/v, 4 weeks
Procedure: Arch. Derm. […] This model uses male Syrian hamsters, whose ears contain sebaceous glands.
Testing for sebum inhibition was carried out in the following manner. Male Syrian hamsters aged 9 to 10 weeks were introduced into the laboratory environment and acclimated for 2 weeks prior to use in the study. Each group consisted of 5 animals and run in parallel with vehicle and positive controls. Prior to administration, a sufficient quantity each compound was dissolved in 1 mL of the vehicle identified in Table III to achieve the final concentration reported in Table Ill.
Animals were dosed topically twice daily, five days a week, for 4 weeks. Each dose consisted of 25 micro liters of vehicle control or drug. The dose was applied to the ventral surfaces of both the right and left ears. All animals were sacrificed approximately 18-24 hours after the final dose. The right ears were collected from each animal and used for sebum analysis.
The ears were prepped for HPLC analysis in the following manner. One 8 mm distal biopsy punch was taken, just above the anatomical “V” mark in the ear to normalize the sample area. The punch was pulled apart. The ventral biopsy surface (the area where the topical dose was directly applied to the sebaceous glands) was retained for testing and the dorsal surface of the biopsy punch was discarded.
Tissue samples were blown with N2 gas and stored at −80° C. under nitrogen until HPLC analysis. In addition to ear samples, an aliquot of each drug and vehicle (at least 250 ul) was also stored at −80° C. for inclusion in the HPLC analysis.
HPLC analysis was carried out on an extract of the tissue sample. Tissue samples were contacted with 3 ml of solvent (a 4:1 admixture of 2,2,4-trimethylpentane and isopropyl alcohol). The mixture was shaken for 15 minutes and stored overnight at room temperature, protected from light. The next morning 1 milliliter of water was added to the sample and shaken for 15 minutes. The sample was then centrifuged at approximately 1500 rpm for 15 minutes. Two ml of the organic phase (top layer) was transferred to a glass vial, dried at 37° C., under nitrogen, for approximately 1 hour, and then lyophilized for approximately 48 hours. The samples were then removed from the lyophilizer and each vial was reconstituted with 600 μl of solvent A (trimethylpentane/tetrahydrofuran (99:1). The samples were then recapped and vortexed for 5 minutes.
200 μl of each sample was then transferred to a pre-labeled 200 μl HPLC vial with 200 μL glass inserts. The HPLC vials were placed in the autosampler tray for the Agilent 1100 series HPLC unit. The Agilent 1100 HPLC system consisted of a thermostated autosampler, a quarternary pump, a column heater, and an A/D interface module. All components were controlled by Agilent ChemStation software. A Waters Spherisorb S3W 4.6×100 mm analytical column was maintained at 30° C. by the Agilent column heater unit. The HPLC autosampler was programmed to maintain the sample temperature at 20 C throughout the run.
10 uL of each sample was injected in triplicate into the column. Two solvents were used for the solvent gradient. Solvent A was an admixture of trimethylpentane and tetrahydrofuran (99:1). Solvent B was ethylacetate. The gradient utilized is described in the table below: […]
The Sedex 75 Evaporative Light Scattering Detector (ELSD) was operated at 45° C. with a gain of 5, and N2 pressure maintained at 3.1 bar. Analog signal obtained by the instrument was sent to the Agilent A/D interface module where it was converted to a digital output. The conversion was based on a 10000 mAU/volt set point and the data rate was set at 10 Hz (0.03 min). The resulting digital output was then feed into the Agilent ChemStation software for integration of the peak area.

[3] = Vehicle #1 (polyethylene glycol/transcutol/ethanol 20/20/60), topical twice daily, vs vehicle control

SMILES: CSc1ccccc1Oc1ccc(C#N)cc1Cl [Example 5, 3-Chloro-4-(2-methylsulfanyl-phenoxy)-benzonitrile]
- IC50 [1]: 48 nM
- % CE Reduction [2, 3]: 27%
- % WE Reduction [2, 3]: 39%
- % WE & CE Reduction ([2]; Vehicle #1, topical twice daily, sum of WE and CE): 66%
